MIC and IC50 data for 20 compounds are collected here from patent US20210070747A1, “2(1H)-QUINOLINONE DERIVATIVE” (priority 2017, published 2021).

Experiment [1] concerns N. gonorrhoeae ATCC 49226. Nature of the experiment: Test for evaluating antibacterial activity (N. gonorrhoeae), broth microdilution MIC. It counts as cell-based. To be noted: Neisseria gonorrhoeae, ATCC49226; 35° C., 24 hours, gonococcal broth. An outline of the steps: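 Broth microdilution in gonococcal broth with 1% supplement C, inoculum from overnight chocolate II agar culture at McFarland 0.5 diluted 5-fold.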

For the next experiment, the system named is E. Coli ATCC 25922. Nature of the experiment: Test for evaluating antibacterial activity (E. coli), broth microdilution MIC. Type of experiment: cell-based. The note with it: Escherichia coli, ATCC25922; 35° C., 18 hours, cation-adjusted Mueller-Hinton medium. Summed up:
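Broth microdilution per modified CLSI method in cation-adjusted Mueller-Hinton medium. Inoculum from overnight heart infusion agar growth, McFarland 0.5 suspension diluted 10-fold; incubation 35° C for 18 hours. MIC taken as lowest drug concentration with no visible growth.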

The target of a further experiment is T1, E. coli topoisomerase IV (Escherichia coli, UniProt P20083).
T1 construct: purchased Inspiralis
T1 sequence (P20083 whole entry): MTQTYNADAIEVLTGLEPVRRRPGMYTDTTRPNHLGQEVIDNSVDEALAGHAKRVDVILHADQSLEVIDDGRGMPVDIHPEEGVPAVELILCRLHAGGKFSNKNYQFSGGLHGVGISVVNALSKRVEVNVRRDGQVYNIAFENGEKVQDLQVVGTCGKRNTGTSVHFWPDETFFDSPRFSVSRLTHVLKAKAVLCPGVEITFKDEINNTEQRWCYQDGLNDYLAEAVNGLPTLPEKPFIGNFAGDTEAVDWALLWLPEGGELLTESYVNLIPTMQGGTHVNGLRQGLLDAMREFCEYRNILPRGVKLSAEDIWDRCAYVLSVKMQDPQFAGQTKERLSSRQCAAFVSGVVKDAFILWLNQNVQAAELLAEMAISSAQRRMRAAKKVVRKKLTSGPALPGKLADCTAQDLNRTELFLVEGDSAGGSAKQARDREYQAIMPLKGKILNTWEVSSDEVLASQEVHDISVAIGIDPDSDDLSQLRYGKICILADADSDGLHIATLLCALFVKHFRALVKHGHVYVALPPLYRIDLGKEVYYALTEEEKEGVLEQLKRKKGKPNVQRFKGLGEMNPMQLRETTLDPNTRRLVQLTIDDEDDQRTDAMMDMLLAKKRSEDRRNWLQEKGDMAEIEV
T1 sequence (P0AFI2 whole entry, further chain): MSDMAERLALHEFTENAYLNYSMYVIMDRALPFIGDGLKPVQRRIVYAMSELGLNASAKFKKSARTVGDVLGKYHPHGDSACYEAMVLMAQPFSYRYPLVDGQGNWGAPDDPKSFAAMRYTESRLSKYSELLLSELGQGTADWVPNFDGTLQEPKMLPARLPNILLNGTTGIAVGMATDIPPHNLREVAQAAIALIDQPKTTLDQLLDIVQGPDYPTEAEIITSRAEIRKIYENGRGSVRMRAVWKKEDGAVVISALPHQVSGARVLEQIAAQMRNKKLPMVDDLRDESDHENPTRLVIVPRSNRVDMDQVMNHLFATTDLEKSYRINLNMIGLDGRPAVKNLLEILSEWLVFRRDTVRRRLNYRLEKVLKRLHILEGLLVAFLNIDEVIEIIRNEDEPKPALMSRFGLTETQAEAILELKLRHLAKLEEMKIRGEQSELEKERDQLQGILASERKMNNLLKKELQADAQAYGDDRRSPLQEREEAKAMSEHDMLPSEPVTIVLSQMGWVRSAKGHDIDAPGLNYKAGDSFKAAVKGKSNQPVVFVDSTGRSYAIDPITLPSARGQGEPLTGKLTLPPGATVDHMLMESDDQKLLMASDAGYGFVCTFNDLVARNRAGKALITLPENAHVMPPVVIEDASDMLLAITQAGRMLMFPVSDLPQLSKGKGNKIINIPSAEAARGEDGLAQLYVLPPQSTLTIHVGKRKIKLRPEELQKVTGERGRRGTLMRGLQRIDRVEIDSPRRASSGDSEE
Nature of the experiment: Test for evaluating the activity of inhibiting E. coli topoisomerase IV enzyme (relaxation). It counts as biochemical. On the procedure: The enzymatic activity of E. coli topoisomerase IV was measured by a method comprising reacting topoisomerase IV and its substrate, supercoiled pBR322 (Inspiralis), in the presence of ATP and detecting the post-reaction supercoiled pBR322/relaxed pBR322 ratio with H19.
(§1) Specifically, to 2 ng/μL of supercoiled pBR322, E. coli topoisomerase IV enzyme (Inspiralis) was added at a final concentration of 0.0075 U/μL and the mixture was incubated for 30 minutes at room temperature. This reaction was carried out in 20 mmol/L tris-HCl buffered solution (pH 8.0) comprising 0.5 mmol/L ATP, 0.005% bridge 35, 35 mmol/L ammonium acetate, 8 mmol/L magnesium chloride, 4.6% glycerol, and 1 mmol/L dithiothreitol. To the reaction mixture, H19 was added to bring the reaction to an end; thereafter, the supercoiled pBR322/relaxed pBR322 ratio was detected at excitation wavelength/emission wavelength=485 nm/535 nm. An inhibition curve was obtained by allowing the analyte compound to be present at varying concentrations during the reaction described above.

The target in experiment [2] is T2, E. coli DNA gyrase (Escherichia coli, UniProt P0AES6).
T2 construct: made in house; host or cells: E. coli BL21 (DE3)
Nature of the experiment: Test for evaluating the activity of inhibiting E. coli DNA gyrase enzyme (Method 2, supercoiling, recombinant gyrA/gyrB complex). It counts as biochemical. An outline of the steps: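 Recombinant E. coli gyrA/gyrB complex (His-tagged, BL21(DE3)-expressed, Ni-NTA purified; 0.135 nmol/mL final) supercoiled relaxed pBR322 (1 ng/μL) with 0.5 mmol/L ATP in pH 8.0 Tris buffer, 60 min at room temperature. H19 stopped the reaction; supercoiled/relaxed ratio read at 485/535 nm, inhibition curves built from varying compound concentrations.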

Experiment [3] concerns the target T2, E. coli DNA gyrase. Nature of the experiment: Test for evaluating the activity of inhibiting E. coli DNA gyrase enzyme (Method 1, supercoiling, Inspiralis enzyme). Type of experiment: biochemical. On the procedure: Test Example 1-1 Test for Evaluating the Activity of Inhibiting E. coli DNA Gyrase Enzyme (Method 1)
The enzymatic activity of E. coli DNA gyrase was measured by a method comprising reacting DNA gyrase and its substrate, relaxed pBR322 (Inspiralis), in the presence of ATP and detecting the post-reaction supercoiled pBR322/relaxed pBR322 ratio with H19 (Profoldin).
as §1, with “to 1” for “to 2”, “of relaxed” for “of supercoiled”, “coli DNA gyrase” for “coli topoisomerase IV”, “of 0.006” for “of 0.0075”, “for 60” for “for 30”, “above. […] The test results of interest are shown in [Table 20-1] and [Table 20-2].” for “above.”

[4] abbreviates: read-out: E. Coli TopoIV relaxation IC50.
The mark [5] stands for this setting: Method 2, read-out: E. Coli Gyrase supercoiling IC50.
Setting [6] is: Method 1, read-out: E. Coli Gyrase supercoiling IC50.

Values after ≈ are worked out from the molar mass of the structure shown. Counter-ions that a name gives are not always drawn. Like-named read-outs stand apart in the source and are kept apart here. A value given as a limit tells only on which side of the number the result lay.

With `CNc1cccc2cc(C(=O)Nc3ccc(C(=O)O)cc3)c(=O)[nH]c12` [Example 2, 4-{[8-(methylamino)-2-oxo-1,2-dihydroquinoline-3-carbonyl]amino} benzoic acid], the minimum inhibitory concentration (MIC) was more than 1 µg/mL in experiment [1] and 64 µg/mL (≈ 190 µM) in the experiment on E. Coli ATCC 25922. Further, the IC50 at E. coli topoisomerase IV (setting [4]) is 0.98 µM.

In the case of `CNc1cccc2cc(C(=O)NCCc3cccc(C(=O)O)c3)c(=O)[nH]c12` [Example 5, 3-(2-{[8-(methylamino)-2-oxo-1,2-dihydroquinoline-3-carbonyl]amino}ethyl)benzoic acid], the half-maximal inhibitory concentration (IC50) was 0.00975 µM on E. coli DNA gyrase [2] (setting [5]) and 17 µM on E. coli topoisomerase IV (setting [4]). The compound also showed an MIC with E. Coli ATCC 25922 of more than 64 µg/mL.

`CNc1cccc2cc(C(=O)Nc3ccc(-c4noc(=O)[nH]4)cc3)c(=O)[nH]c12` [Example 18, 8-(methylamino)-2-oxo-N-[4-(5-oxo-4,5-dihydro-1,2,4-oxadiazole-3-yl)phenyl]-1,2-dihydroquinoline-3-carboxamide]: the MIC in experiment [1] was 0.25 µg/mL (≈ 0.662 µM); in the experiment with E. Coli ATCC 25922, more than 0.5 µg/mL. The half-inhibitory concentration (IC50) on E. coli DNA gyrase [3] (setting [6]) came out at 0.0157 µM.

For `CNc1cccc2cc(C(=O)OCc3ccncc3N)c(=O)[nH]c12` [Example 19, (3-aminopyridine-4-yl)methyl 8-(methyl-amino)-2-oxo-1,2-dihydroquinoline-3-carboxylate], the figures for the MIC (in experiment [1]; in the experiment on E. Coli ATCC 25922) were more than 4 µg/mL and more than 16 µg/mL, respectively. Besides, the half-inhibitory concentration (IC50) at E. coli DNA gyrase [3] (setting [6]) was determined as 0.426 µM.

Consider `CN=S(C)(=O)c1ccc(NC(=O)c2cc3cccc(NC)c3[nH]c2=O)cc1` (stereo not shown) [Example 22, N-[4-(N,S-dimethane-sulfonimidoyl)phenyl]-8-(methylamino)-2-oxo-1,2-dihydroquinoline-3-carboxamide], for which the minimal inhibitory concentration (MIC) in experiment [1] was more than 4 µg/mL; against E. Coli ATCC 25922 it was more than 8 µg/mL. Besides, the IC50 on E. coli DNA gyrase [3] (setting [6]) is 0.174 µM.

With `CNc1cccc2cc(C(=O)Nc3cnc(N4CCN(C)CC4)nc3)c(=O)[nH]c12` [Example 28, 8-(methylamino)-N-[2-(4 methylpiperazine-1-yl)pyrimidine-5-yl]-2-oxo-1,2-dihydroquinoline-3-carboxamide], the values for the minimal inhibitory concentration (MIC) (in experiment [1]; against E. Coli ATCC 25922) were more than 4 µg/mL and more than 16 µg/mL, respectively. Also, the half-inhibitory concentration (IC50) at E. coli DNA gyrase [3] (setting [6]) came to 0.032 µM.

Take `CNc1cccc2cc(C(=O)NCCc3cn4cccnc4n3)c(=O)[nH]c12` [Example 29, N-[2-(imidazo [1,2-a]pyrimidine-2-yl)ethyl]-8-(methylamino)-2-oxo-1,2-dihydroquinoline-3-carboxamide]: the values for the minimum inhibitory concentration (MIC) (in experiment [1]; in the experiment on E. Coli ATCC 25922) were more than 4 µg/mL and more than 64 µg/mL, respectively. Also, the half-maximal inhibitory concentration (IC50) at E. coli DNA gyrase [3] (setting [6]) stood at 0.0282 µM.

For `CNc1cc(F)cc2cc(C(=O)Nc3ccc(C(=O)O)cc3)c(=O)[nH]c12` [Example 33, 4-[[6-Fluoro-8-(methylamino)-2-oxo-1,2-dihydroquinoline-3-carbonyl]amino]benzoic Acid], the MIC in experiment [1] is 0.004 µg/mL (≈ 0.0113 µM); against E. Coli ATCC 25922 it was 16 µg/mL (≈ 45 µM). The half-inhibitory concentration (IC50) turned out to be 0.00036 µM at E. coli DNA gyrase [2] and 0.219 µM on E. coli topoisomerase IV.

For the compound `CNc1cc(F)cc2cc(C(=O)Nc3ccc(C(=O)NCCN4CCOCC4)cc3)c(=O)[nH]c12` [Example 40, 6-Fluoro-8-(methylamino)-N-(4-[[2-(morpholin-4-yl)ethyl]carbamoyl]phenyl)-2-oxo-1,2-dihydroquinoline-3-carboxamide], the IC50 came out at 0.00729 µM at E. coli DNA gyrase [2] (setting [5]) and 1.3 µM at E. coli topoisomerase IV (setting [4]). Moreover, inhibition of growth against E. Coli ATCC 25922 (MIC) required 4 µg/mL (≈ 8.56 µM).

Take `CNc1cc(F)cc2cc(C(=O)Nc3cncnc3)c(=O)[nH]c12` [Example 50, 6-fluoro-8-(methylamino)-2-oxo-N-(pyrimidine-5-yl)-1,2-dihydroquinoline-3-carboxamide]: the minimum inhibitory concentration (MIC) in experiment [1] is 0.06 µg/mL (≈ 0.192 µM); in the experiment with E. Coli ATCC 25922 it was more than 8 µg/mL. In addition, on E. coli DNA gyrase [3] (setting [6]), the half-inhibitory concentration (IC50) stood at 0.00187 µM.

Consider `CNc1cc(F)cc2cc(C(=O)Nc3ccc(C(=O)O)c(OCCN4CCN(C)CC4)c3)c(=O)[nH]c12` [Example 54, 4-{[6-fluoro-8-(methylamino)-2-oxo-1,2-dihydroquinoline-3-carbonyl]amino}-2-[2-(4-methylpiperazine-1-yl)ethoxy] benzoic acid-hydrochloride], for which the MIC in experiment [1] was 1 µg/mL; in the experiment on E. Coli ATCC 25922, more than 16 µg/mL. In addition, at E. coli DNA gyrase [3] (setting [6]), the concentration for half-maximal inhibition (IC50) worked out at 0.0019 µM.

As for `CNc1cc(F)cc2cc(C(=O)N(C)c3ccc(C(=O)O)cc3)c(=O)[nH]c12` [Example 56, 4-{[6-fluoro-8-(methylamino)-2-oxo-1,2-dihydroquinoline-3-carbonyl] (melhyl)amino} benzoic acid], the minimal inhibitory concentration (MIC) is 0.12 µg/mL (≈ 0.325 µM) in experiment [1] and more than 64 µg/mL in the experiment with E. Coli ATCC 25922. The midpoint of inhibition on E. coli DNA gyrase [3], the IC50, lay at 0.018 µM.

Turning to `CNc1cc(F)cc2cc(C(=O)Nc3ccc(C(=O)O)c(O)c3)c(=O)[nH]c12` [Example 58, 4-{[6-fluoro-8-(methylamino)-2-oxo-1,2-dihydroquinoline-3-carbonyl]amino}-2-hydroxybenzoic acid], the minimal inhibitory concentration (MIC) in experiment [1] was 0.12 µg/mL (≈ 0.323 µM); against E. Coli ATCC 25922, more than 32 µg/mL. Besides, the IC50 on E. coli DNA gyrase [3] (setting [6]) was determined as 0.00205 µM.

Take `CNc1cc(F)cc2cc(C(=O)Nc3ccc(C(=O)O)c(OCCCN)c3)c(=O)[nH]c12.O=CO` [Example 62, 2-(3-Aminopropoxy)-4-[[6-fluoro-8-(methylamino)-2-oxo-1,2-dihydroquinoline-3-carbonyl]amino]benzoic acid-formate]: the results for the minimal inhibitory concentration (MIC) (in experiment [1]; against E. Coli ATCC 25922) were 2 µg/mL and more than 16 µg/mL, respectively. The compound further gave an IC50 on E. coli DNA gyrase [3] of 0.00092 µM.

As to `CNc1cc(F)cc2cc(C(=O)NCCc3cccc(C(=O)O)c3)c(=O)[nH]c12` [Example 66, 3-(2-{[6-fluoro-8-(methylamino)-2-oxo-1,2-dihydroquinoline-3-carbonyl]amino}ethyl) benzoic acid], the figures for the MIC (in experiment [1]; with E. Coli ATCC 25922) were 0.25 µg/mL (≈ 0.652 µM) and more than 32 µg/mL, respectively. Further, the half-maximal inhibitory concentration (IC50) on E. coli DNA gyrase [3] (setting [6]) is 0.00095 µM.

For the compound `CNc1cc(F)cc2cc(C(=O)Nc3cccnc3)c(=O)[nH]c12` [Example 72, 6-fluoro-8-(methylamino)-2-oxo-N-(pyridine-3-yl)-1,2-dihydroquinoline-3-carboxamide], the MIC in experiment [1] is 0.12 µg/mL (≈ 0.384 µM); against E. Coli ATCC 25922, more than 4 µg/mL. The IC50 on E. coli DNA gyrase [3] (setting [6]) came to 0.00803 µM.

`CNc1cc(F)cc2cc(C(=O)Nc3ccccc3)c(=O)[nH]c12` [Example 76, 6-fluoro-8-(methylamino)-2-oxo-N-phenyl-1,2-dihydroquinoline-3-carboxamide]: the minimum inhibitory concentration (MIC) in experiment [1] is 0.25 µg/mL (≈ 0.803 µM); against E. Coli ATCC 25922 it was more than 32 µg/mL. Also, the IC50 at E. coli DNA gyrase [3] (setting [6]) is 0.249 µM.

Regarding `CNc1cc(F)cc2cc(C(=O)OCc3ccncc3N)c(=O)[nH]c12` [Example 77, (3-aminopyridine-4-yl)methyl 6-fluoro-8-(methylamino)-2-oxo-1,2-dihydroquinoline-3-carboxylate], the results for the MIC (in experiment [1]; in the experiment on E. Coli ATCC 25922) were 1 µg/mL (≈ 2.92 µM) and more than 16 µg/mL, respectively. The IC50 at E. coli DNA gyrase [3] (setting [6]) is 0.0243 µM.

On to `CNc1cc(F)cc2cc(C(=O)Nc3ccccc3CN(CCO)C3CCCCC3)c(=O)[nH]c12` [Example 123, N-(2-{[cyclohexyl(2-hydroxyethyl)amino]methyl}phenyl)-6-fluoro-8-(methylamino)-2-oxo-1,2-dihydroquinoline-3-carboxamide], for which the IC50 at E. coli DNA gyrase [2] (setting [5]) stood at 0.00359 µM; at E. coli topoisomerase IV (setting [4]), 0.615 µM. In the experiment on E. Coli ATCC 25922, this compound had an MIC of 8 µg/mL (≈ 17.1 µM).

Consider `CNc1cc(F)cc2c(NCC3CCNC3)c(C(=O)Nc3ccc(C(=O)O)cc3)c(=O)[nH]c12.O=CO` (stereo not shown) [Example 133, 4-{[6-fluoro-8-(methylamino)-2-oxo-4-{[(pyrrolidine-3-yl)methyl]amino}-1,2-dihydroqunoline-3-carbonyl]amino}benzoic acid-formate], for which the values for the half-inhibitory concentration (IC50) on E. coli DNA gyrase [2] and at E. coli topoisomerase IV were 0.00082 µM and 0.16 µM, respectively. In the experiment on E. Coli ATCC 25922, the MIC was more than 16 µg/mL.
